From ChEMBL document CHEMBL1127170, “Cyclooxygenase and 5-lipoxygenase inhibitory activity of 2,6 di-t-butylphenols linked by a sulfur atom to 1,3,4-thiadiazoles and 1,3,4-oxadiazoles” (Bioorg Med Chem Lett, 1993)

Assays:
Cyclooxygenase = molecular target: T1, Cyclooxygenase (Rattus norvegicus, UniProt P35355+Q63921); experiment: The compound was tested for the inhibition of Prostaglandin G/H synthase in intact basophilic rat leukemia cells
T1 sequence (P35355 whole entry): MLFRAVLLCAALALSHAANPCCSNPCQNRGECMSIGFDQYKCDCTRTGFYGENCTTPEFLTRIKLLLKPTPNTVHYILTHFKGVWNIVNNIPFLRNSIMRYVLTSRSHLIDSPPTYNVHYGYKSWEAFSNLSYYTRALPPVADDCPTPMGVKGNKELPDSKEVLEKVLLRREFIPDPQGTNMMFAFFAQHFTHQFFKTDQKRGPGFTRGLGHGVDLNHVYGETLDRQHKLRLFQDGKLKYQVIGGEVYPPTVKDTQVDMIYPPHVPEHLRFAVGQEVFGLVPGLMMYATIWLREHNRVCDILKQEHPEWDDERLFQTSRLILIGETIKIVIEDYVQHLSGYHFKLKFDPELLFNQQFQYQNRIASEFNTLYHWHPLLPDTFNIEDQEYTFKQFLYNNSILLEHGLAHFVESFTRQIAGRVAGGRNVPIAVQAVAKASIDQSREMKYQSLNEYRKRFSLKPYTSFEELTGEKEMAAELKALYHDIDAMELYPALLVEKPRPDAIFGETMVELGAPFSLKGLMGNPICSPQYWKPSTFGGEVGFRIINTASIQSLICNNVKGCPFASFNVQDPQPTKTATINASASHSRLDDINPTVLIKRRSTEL
T1 sequence (Q63921 whole entry): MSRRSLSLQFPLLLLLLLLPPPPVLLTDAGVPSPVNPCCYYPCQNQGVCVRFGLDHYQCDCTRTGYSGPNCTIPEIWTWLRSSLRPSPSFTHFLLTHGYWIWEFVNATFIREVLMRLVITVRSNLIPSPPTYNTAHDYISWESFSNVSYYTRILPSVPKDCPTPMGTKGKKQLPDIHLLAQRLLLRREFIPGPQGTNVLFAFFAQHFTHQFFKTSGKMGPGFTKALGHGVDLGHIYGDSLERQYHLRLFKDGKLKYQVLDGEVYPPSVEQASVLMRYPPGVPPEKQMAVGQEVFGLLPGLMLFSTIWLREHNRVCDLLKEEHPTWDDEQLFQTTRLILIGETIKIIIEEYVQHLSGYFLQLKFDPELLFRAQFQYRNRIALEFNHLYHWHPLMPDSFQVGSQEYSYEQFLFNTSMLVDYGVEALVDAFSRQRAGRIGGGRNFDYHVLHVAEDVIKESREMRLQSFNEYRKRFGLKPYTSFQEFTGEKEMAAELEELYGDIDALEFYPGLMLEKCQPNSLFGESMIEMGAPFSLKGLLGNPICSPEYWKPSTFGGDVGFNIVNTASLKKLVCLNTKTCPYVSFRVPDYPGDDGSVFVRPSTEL

[1] = molecular target: T2, Polyunsaturated fatty acid 5-lipoxygenase (Rattus norvegicus) (UniProt P12527); experiment: The compound was tested for the inhibition of 5-lipoxygenase in intact basophilic rat leukemia cells at 1.0 uM; format: cell-based; conditions: RBL-1
T2 sequence (whole entry): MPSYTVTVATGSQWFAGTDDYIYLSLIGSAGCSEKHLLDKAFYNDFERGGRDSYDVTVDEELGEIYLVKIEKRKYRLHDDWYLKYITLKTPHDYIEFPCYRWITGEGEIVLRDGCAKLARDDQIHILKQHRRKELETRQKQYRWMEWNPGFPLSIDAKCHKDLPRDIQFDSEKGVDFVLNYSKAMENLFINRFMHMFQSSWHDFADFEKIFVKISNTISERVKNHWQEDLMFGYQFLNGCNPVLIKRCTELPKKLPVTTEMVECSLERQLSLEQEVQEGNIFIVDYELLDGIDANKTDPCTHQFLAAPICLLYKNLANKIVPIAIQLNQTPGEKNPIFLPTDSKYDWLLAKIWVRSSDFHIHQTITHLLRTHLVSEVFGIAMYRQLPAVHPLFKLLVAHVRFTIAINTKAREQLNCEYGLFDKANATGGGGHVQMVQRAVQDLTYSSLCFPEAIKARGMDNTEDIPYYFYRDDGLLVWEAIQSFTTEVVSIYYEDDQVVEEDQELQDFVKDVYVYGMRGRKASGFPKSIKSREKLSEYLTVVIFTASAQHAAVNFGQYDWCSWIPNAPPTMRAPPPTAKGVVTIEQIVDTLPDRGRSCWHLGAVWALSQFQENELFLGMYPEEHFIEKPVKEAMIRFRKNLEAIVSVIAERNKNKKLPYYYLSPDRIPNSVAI

[2] = molecular target: T3, Cyclooxygenase (Rattus norvegicus) (UniProt P35355+Q63921); experiment: The compound was tested for the inhibition of Prostaglandin G/H synthase in intact basophilic rat leukemia cells at 16 uM
[3] = molecular target: T3, Cyclooxygenase (Rattus norvegicus); experiment: The compound was tested for the inhibition of Prostaglandin G/H synthase in intact basophilic rat leukemia cells at 10 uM
[4] = molecular target: T2, Polyunsaturated fatty acid 5-lipoxygenase (Rattus norvegicus); experiment: The compound was tested for the inhibition of 5-lipoxygenase in intact basophilic rat leukemia cells at 10 uM; format: cell-based; conditions: RBL-1
[5] = molecular target: T4, Polyunsaturated fatty acid 5-lipoxygenase (Rattus norvegicus, UniProt P12527); experiment: The compound was tested for the inhibition of 5-lipoxygenase in intact basophilic rat leukemia cells; format: cell-based, RBL-1
T4 sequence (P12527 whole entry): T2 sequence (whole entry)

Structure (SMILES)	IC50 (Cyclooxygenase) [µM]	inhibition [2] [%]	IC50 [5] [µM]	further results
CC(C)(C)c1cc(Sc2nnc(S)o2)cc(C(C)(C)C)c1O	1.5	–	–	–
CC(C)(C)c1cc(Sc2nnc(N)s2)cc(C(C)(C)C)c1O	–	–	–	inhibition [3]: < 40%; inhibition [4]: < 40%
CC(C)(C)c1cc(Sc2nnc(O)o2)cc(C(C)(C)C)c1O	–	< 40	1.1	–
CC(C)(C)c1cc(Sc2nnc(NC#N)s2)cc(C(C)(C)C)c1O	6	–	3.1	–

Now from value to molecule, other results behind:

IC50 (Cyclooxygenase) [µM]	inhibition [2] [%]	IC50 [5] [µM]	Structure (SMILES)	further results
–	< 40	–	CC(C)(C)c1cc(Sc2nnc(O)s2)cc(C(C)(C)C)c1O	inhibition [1]: 75%
3.6	–	–	CC(C)(C)c1cc(Sc2nnc(S)s2)cc(C(C)(C)C)c1O	–
